Each compound was assayed against T1, West Nile Virus NS3 protease (West Nile virus, UniProt P06935, DELINS1467-1501GGGGSGGGG) (assay: West Nile Virus NS3 protease inhibition assay (SensoLyte 440 kit)). Conditions: LOPAC compounds clustering with fraction 2.
T1 construct: truncated form of West Nile NS3 protease (residues 1-186); purchased AnaSep (AnaSpec), San Jose, Calif., USA
T1 sequence (P06935 with tags, fused parts or gaps DELINS1467-1501GGGGSGGGG): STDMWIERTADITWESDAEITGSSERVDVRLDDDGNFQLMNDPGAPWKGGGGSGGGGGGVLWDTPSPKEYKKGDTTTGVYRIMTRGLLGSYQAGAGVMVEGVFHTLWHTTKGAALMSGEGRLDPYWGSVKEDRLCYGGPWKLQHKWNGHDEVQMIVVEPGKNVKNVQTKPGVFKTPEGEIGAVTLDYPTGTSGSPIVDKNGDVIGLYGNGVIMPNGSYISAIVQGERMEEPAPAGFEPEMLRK
Format: biochemical
Description: The SPE fraction was further fractionated in order to isolate the prominent peaks identified by LC-MS using the technique of HPLC and determined retention times.
The West Nile Virus NS3 protease inhibition assay was carried out using the commercial kit SensoLyte® 440 West Nile Virus Protease Assay Kit (AnaSep, San Jose, Calif., USA). The protease is a truncated form of West Nile NS3 protease (residues 1-186) connected to it is NS2B cofactor (residues 49-96) by the linker sequence, […]. Protease activity was assessed by its ability to cleave the fluorogenic peptide Pyr-RTKRAMC, and the subsequent production of free AMC (7-amino-4-methylcoumarin) fluorophores. All extracts and controls were performed with three replicates in a 384-well plate format, each with a total reaction mixture of 33 μl. To begin, the test extracts and protease solution were incubated at 37° C. for 10 min before the addition of the pre-heated substrate. After substrate addition and gentle mixing the reaction was incubated at 37° C. for one hour. The fluorophore was detected with the use of a SpectraMax® Paradigm® Multimode Microplate Detection Platform (Molecular Devices, Sunnyvale, Calif., USA) by scanning at 354 nm excitation wavelength and 442 n emission wavelength.

SMILES | inhibition of the WNV NS protease (in words)
Clc1nccc2c1ccc1ccccc12 [CBIQ] | no inhibition
C[C@]12C[C@H](O)[C@H]3[C@@H](CCC4=CC(=O)CC[C@@]43C)[C@@H]1CC[C@@H]2C(=O)CO (single isomer, unassigned) [Corticosterone] | no inhibition
C[C@@H]1C(=O)NC2=Nc3cccc(Cl)c3CN21 [Quazinone] | no inhibition
CCN1/C(=C/C(C)=O)Sc2ccc(OC)cc21 [TG003] | no inhibition
O.O.O=c1c(O)c(-c2ccc(O)c(O)c2)oc2cc(O)cc(O)c12 [Quercetin dehydrate] | no inhibition

Reference: patent US10376498B2, “3-alkyl pyridinium compound from red sea sponge with potent antiviral activity” (priority 2014, dated 2019)
